Experimental data reported in US20050065596A1, “Stents capable of controllably releasing histone deacetylase inhibitors” (priority 2002, published 2005).

Assays:
Type in all cases: cell-based
Human aortic SMCs [1] = test: MTT assay of cell proliferation
Procedure: (§1) Human aortic SMCs were obtained from BioWhittaker Molecular Applications, Inc. (Clonetics, CC-2571), cultured in Smooth Muscle Medium-2 (BioWhittaker Molecular Applications, Inc., CC-3182), and maintained at 37° C. in humidified 95% air/5% CO2. Human aortic SMCs of passages 8-9 were used in the following experiments.
(§2) Cell proliferation was measured by MTT assay and cell counting.
(§3) Human aortic SMCs cells were seeded, at a density of 6×10^3 cells/well, in a 24-well plate (about 3×10^3 cells/cm^2, quadruplicates). Following cell attachment for 24 hours, the above drugs were added to the cells, to achieve the following final concentrations: 100 nM and 500 nM of TSA, 10 nM of RPM, and 50 nM of Paclitaxel.
Following three additional days of incubation, 50 μl MTT (methylthiazoletetrazolium, 5 mg/ml in sterile H2O) were added in 0.5 ml medium to each well, and the cells were incubated at 37° C. for 4 hours. The medium was then aspirated, and the cells were dissolved in 300 μl 0.1 N HCl/isopropanol, mixed thoroughly, and a 100 μl portion of the mixture was transferred into a 96-well plate;
The 96-well plate was applied to a micro-plate reader and the absorbance at 570 nm was read. The average reading of wells containing only medium was set as the Control. For each sample, the proliferation rate was determined by the following equation: (Reading/Control)×100=Proliferation Rate (% of Control).

Human aortic SMCs [2] = test: Morphological analysis of human aortic SMCs after one day incubation with drug; details: FIG. 12; for morphological changes observed in a 40× microscope field: one day incubation, 100 nM and 500 nM TSA, 10 nM RPM, 50 nM Paclitaxel
Procedure: as §1, §3
Following a one day incubation with the drug, the morphological changes in the cells were evaluated under a microscope.

Human aortic SMCs [3] = test: Cell counting (growth curves); details: 50 nM TSA; days 0-14, medium with TSA replaced every 2-3 days; vs control cells; FIG. 14
Procedure: as §1, §2
Human aortic SMCs cells were seeded, at a density of […], in a 24-well plate (about 1.5×10^3 cells/cm^2, in triplicates). Following cell attachment for 24 hours, TSA was added to achieve a final concentration of 50 nM.
Every 2-3 days, the medium was removed and replaced with a fresh medium containing TSA. Control cells were treated with medium without TSA.
On days 0, 1, 2, 3, 6, 9, and 14 post-treatment, the cells were trypsinized and counted with a hemacytometer.

SMILES | cytotoxicity on SMCs (Human aortic SMCs [1]; 50 nM Paclitaxel, before the application of MTT assay) | morphological changes observed in a 40× microscope field (Human aortic SMCs [2]) | inhibitory effect on the growth of the human SMCs (proliferation rate, MTT) (Human aortic SMCs [1]; 100 nM TSA and 500 nM TSA, four days incubation, FIG. 13) | nature of the inhibitory effect on SMCs (Human aortic SMCs [2]; concluded from the morphological analysis) | continuous effect on SMCs growth (growth curves, cell counting) (Human aortic SMCs [3])
CC(=O)O[C@H]1C(=O)[C@@]2(C)[C@H]([C@H](OC(=O)c3ccccc3)[C@]3(O)C[C@H](OC(=O)[C@H](O)[C@@H](NC(=O)c4ccccc4)c4ccccc4)C(C)=C1C3(C)C)[C@]1(OC(C)=O)CO[C@@H]1C[C@@H]2O [Paclitaxel] | high cytotoxicity on SMCs and caused cell death | Rounded up pro-apoptotic cells appeared | – | – | –
CC(/C=C/C(=O)NO)=C\[C@@H](C)C(=O)c1ccc(N(C)C)cc1 [TSA, Trichostatin A] | – | No morphological changes | inhibits SMC proliferation in vitro in a dose-dependent mainer | mainly cytostatic | significant inhibitory effect
